Test results published in article PMC3678025, “Structure of the Tubulin/FtsZ-Like Protein TubZ from Pseudomonas Bacteriophage ΦKZ” (Journal of Molecular Biology, 2013).

Columns and labels:
[1] = molecular target: T1, Wild-type ΦKZ TubZ (Pseudomonas phage phiKZ, UniProt Q8SDC3); test: […]° light scattering of polymerisation, electron cryo-microscopy; format: biochemical; conditions: 2 μM protein, 20 or 200 μM GTP, 200 mM KCl, 5 mM MgCl2, pH 8.0, 25 °C; induces polymerisation
T1 construct: gene PHIKZ039; used for light scattering and electron microscopy

[2] = molecular target: T2, ΦKZ TubZ-His6 (Pseudomonas phage phiKZ, UniProt Q8SDC3); test: X-ray crystal structure; format: binding; conditions: 2.0 Å monomer (GDP retained through purification, 150 mM Tris-Cl pH 8.0) and 1.7 Å protofilament (crystallised with GTPγS, pH 5.5); GTPase active site
T2 construct: gene PHIKZ039; used for crystallography
T2 sequence (Q8SDC3 whole entry): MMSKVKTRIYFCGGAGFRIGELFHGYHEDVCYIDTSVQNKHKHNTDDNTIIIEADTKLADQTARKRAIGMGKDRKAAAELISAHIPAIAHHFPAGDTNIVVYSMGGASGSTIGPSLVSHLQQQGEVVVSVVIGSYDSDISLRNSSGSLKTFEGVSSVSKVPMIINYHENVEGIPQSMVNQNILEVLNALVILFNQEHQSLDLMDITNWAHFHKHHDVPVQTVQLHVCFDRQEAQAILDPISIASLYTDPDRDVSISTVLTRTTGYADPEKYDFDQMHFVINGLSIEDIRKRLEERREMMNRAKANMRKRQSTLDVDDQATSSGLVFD

T1 sequence (Q8SDC3 whole entry): as above

| SMILES | 90° light scattering of polymerisation, electron cryo-microscopy [1] | X-ray crystal structure [2] |
| --- | --- | --- |
| Nc1nc2c(ncn2[C@@H]2O[C@H](COP(=O)(O)OP(=O)(O)OP(=O)(O)O)[C@@H](O)[C@H]2O)c(=O)[nH]1 [GTP] | ΦKZ TubZ filaments proved extremely dynamic in the presence of GTP |  |
| Nc1nc2c(ncn2[C@@H]2O[C@H](COP(=O)(O)OP(=O)(O)O)[C@@H](O)[C@H]2O)c(=O)[nH]1 [GDP] |  | The GTPase active site within the subunit was occupied by GDP, which was retained |
